Measured values as given in ChEMBL document CHEMBL1159043, “Synthesis and hSERT activity of homotryptamine analogs. Part 6: [3+2] dipolar cycloaddition of 3-vinylindoles” (Bioorg Med Chem Lett, 2010).

Legend:
[1] = biological target: Sodium-dependent serotonin transporter (Homo sapiens, UniProt P31645); assay: Displacement of [I125]RTI-55 from human SERT transfected in human HEK293 cells; type: cell-based
[2] = biological target: Sodium-dependent dopamine transporter (Homo sapiens, UniProt Q01959); assay: Displacement of [I125]RTI-55 from human DAT transfected in human HEK293 cells; type: cell-based
Chain of Sodium-dependent dopamine transporter (Q01959 whole entry): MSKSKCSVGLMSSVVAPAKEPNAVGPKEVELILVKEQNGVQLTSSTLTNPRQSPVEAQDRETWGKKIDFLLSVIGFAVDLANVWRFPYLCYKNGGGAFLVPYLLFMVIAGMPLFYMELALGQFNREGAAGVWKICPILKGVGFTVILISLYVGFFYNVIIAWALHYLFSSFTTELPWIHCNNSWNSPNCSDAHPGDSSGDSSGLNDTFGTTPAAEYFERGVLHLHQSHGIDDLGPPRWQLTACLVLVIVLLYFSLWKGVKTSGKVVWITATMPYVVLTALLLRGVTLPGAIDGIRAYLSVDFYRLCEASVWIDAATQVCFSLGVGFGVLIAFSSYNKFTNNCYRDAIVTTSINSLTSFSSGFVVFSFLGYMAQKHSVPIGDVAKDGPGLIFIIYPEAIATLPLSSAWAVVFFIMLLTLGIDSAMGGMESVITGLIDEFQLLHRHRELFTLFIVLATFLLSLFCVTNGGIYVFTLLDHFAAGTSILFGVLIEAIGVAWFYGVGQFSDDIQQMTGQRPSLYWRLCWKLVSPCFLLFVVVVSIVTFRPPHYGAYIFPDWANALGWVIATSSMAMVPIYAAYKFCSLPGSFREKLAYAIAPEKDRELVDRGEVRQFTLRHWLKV

[3] = biological target: Sodium-dependent noradrenaline transporter (Homo sapiens, UniProt P23975); assay: Displacement of [125I]nisoxetine from human NET transfected in human HEK293 cells; type: cell-based
Chain of Sodium-dependent noradrenaline transporter (P23975 whole entry): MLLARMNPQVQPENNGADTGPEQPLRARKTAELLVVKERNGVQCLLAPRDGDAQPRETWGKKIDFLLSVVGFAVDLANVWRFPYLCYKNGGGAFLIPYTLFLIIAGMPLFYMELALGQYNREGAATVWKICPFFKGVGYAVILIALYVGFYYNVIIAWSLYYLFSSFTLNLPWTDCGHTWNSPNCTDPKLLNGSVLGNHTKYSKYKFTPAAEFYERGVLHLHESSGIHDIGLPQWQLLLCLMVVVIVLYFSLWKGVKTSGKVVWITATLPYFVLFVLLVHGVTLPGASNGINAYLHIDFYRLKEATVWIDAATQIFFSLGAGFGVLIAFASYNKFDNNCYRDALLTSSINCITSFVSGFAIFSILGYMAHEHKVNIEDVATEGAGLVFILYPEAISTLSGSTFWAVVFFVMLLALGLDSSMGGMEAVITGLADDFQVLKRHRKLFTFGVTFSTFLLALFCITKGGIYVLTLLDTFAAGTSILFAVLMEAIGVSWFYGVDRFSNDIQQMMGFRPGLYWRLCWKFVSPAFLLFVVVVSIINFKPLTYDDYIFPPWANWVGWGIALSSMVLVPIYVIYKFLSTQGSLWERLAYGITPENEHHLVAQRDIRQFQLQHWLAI

Homo sapiens [4] = organism: Homo sapiens; assay: Selectivity ratio of IC50 for human DAT to IC50 for human SERT
Homo sapiens [5] = organism: Homo sapiens; assay: Selectivity ratio of IC50 for human NET to IC50 for human SERT

Chain of Sodium-dependent serotonin transporter (P31645 whole entry): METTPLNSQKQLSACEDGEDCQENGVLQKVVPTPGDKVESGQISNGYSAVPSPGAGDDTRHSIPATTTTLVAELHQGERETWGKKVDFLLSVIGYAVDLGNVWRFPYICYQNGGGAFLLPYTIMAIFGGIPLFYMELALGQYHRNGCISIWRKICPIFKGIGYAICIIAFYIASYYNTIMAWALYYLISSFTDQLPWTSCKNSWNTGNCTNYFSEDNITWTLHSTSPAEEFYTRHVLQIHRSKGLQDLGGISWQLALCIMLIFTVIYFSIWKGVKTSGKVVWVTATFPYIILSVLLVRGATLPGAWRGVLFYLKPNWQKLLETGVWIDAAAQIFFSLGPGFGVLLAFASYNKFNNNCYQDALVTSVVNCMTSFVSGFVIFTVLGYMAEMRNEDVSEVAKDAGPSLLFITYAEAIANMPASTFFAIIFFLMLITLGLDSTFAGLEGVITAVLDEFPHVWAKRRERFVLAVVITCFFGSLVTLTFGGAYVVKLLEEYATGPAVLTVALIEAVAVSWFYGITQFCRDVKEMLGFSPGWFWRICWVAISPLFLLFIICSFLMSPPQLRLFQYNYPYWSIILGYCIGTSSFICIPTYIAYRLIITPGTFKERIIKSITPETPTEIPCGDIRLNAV

Row | IC50 [1] [nM] | Structure (SMILES) | also measured
1 | 0.42 | CN1CCc2ccccc2C1CCc1c[nH]c2ccc(C#N)cc12 (single isomer, unassigned; (-)) [listing 1 of 2 here] | IC50 [2]: 620 nM; IC50 [3]: > 10000 nM
2 | 5.7 | CN1CCc2ccccc2C1CCc1c[nH]c2ccc(F)cc12 (configuration not stated) | 
3 |  | CN1CCc2ccccc2C1CCc1c[nH]c2ccc(C#N)cc12 (single isomer, unassigned; (-)) [listing 2 of 2 here] | Ratio IC50 (Homo sapiens [4]): 1500; Ratio IC50 (Homo sapiens [5]): > 20000
4 | 120 | COc1ccc2[nH]cc(CCC3c4ccccc4CCN3C)c2c1 (configuration not stated) | 
5 | 4.2 | CN1CCc2ccccc2C1CCc1c[nH]c2ccc(C#N)cc12 (single isomer, unassigned; (+)) | 
6 | 7.6 | CN1CC[C@H](Cc2ccccc2)C[C@@H]1CCc1c[nH]c2ccc(C#N)cc12 | 
7 | 46 | N#Cc1ccc2[nH]cc(CCC3CCCCN3Cc3cc(C(F)(F)F)cc(C(F)(F)F)c3)c2c1 (configuration not stated) | 
8 | 7 | N#Cc1ccc2[nH]cc(CCC3CCCCN3Cc3ccccc3)c2c1 (configuration not stated) | 
9 | 18 | N#Cc1ccc2[nH]cc(CC[C@H]3C[C@@H](Cc4ccccc4)CCN3)c2c1 | 
10 | 80 | N#Cc1ccc2[nH]cc(CCC3CCCCN3CCC(F)(F)F)c2c1 (configuration not stated) | 
11 | 1.1 | CN1CCc2ccccc2C1CCc1c[nH]c2ccc(C#N)cc12 (stereo in doubt; 21a) | 

Row | Structure (SMILES) | IC50 [1] [nM] | also measured
12 | CCN1CCCCC1CCc1c[nH]c2ccc(C#N)cc12 (configuration not stated) | 4 | 
13 | N#Cc1ccc2[nH]cc(CCC3CCCN3)c2c1 (configuration not stated) | 17 | 
14 | CN1CCCCC1(C)CCc1c[nH]c2ccc(C#N)cc12 (configuration not stated) | 2.1 | 
15 | CN1CCOCC1CCc1c[nH]c2ccc(C#N)cc12 (configuration not stated) | 76 | 
16 | CN1CCCCC1CCc1c[nH]c2ccc(C#N)cc12 (configuration not stated) | 3.9 | 
17 | CC1(CCc2c[nH]c3ccc(C#N)cc23)CCCCN1 (configuration not stated) | 17 | 
18 | N#Cc1ccc2[nH]cc(CCC3CCCCN3)c2c1 (configuration not stated) | 2.5 | 
19 | CN1CCCC1CCc1c[nH]c2ccc(C#N)cc12 (configuration not stated) | 8.1 | 
